In patent US12233041B2, “Disulfonate stilbenes for use in the treatment of proliferative diseases” (UNIVERSITÉ DE NANTES, priority 2018, dated 2025):
Like-named read-outs stand apart in the source and are kept apart here.

Columns and labels:
[1] = target: T1, Rad51 (Homo sapiens, UniProt Q06609); assay: DNA invasion by D-loop assay (strand exchange); format: biochemical
T1 sequence (Q06609 1-339): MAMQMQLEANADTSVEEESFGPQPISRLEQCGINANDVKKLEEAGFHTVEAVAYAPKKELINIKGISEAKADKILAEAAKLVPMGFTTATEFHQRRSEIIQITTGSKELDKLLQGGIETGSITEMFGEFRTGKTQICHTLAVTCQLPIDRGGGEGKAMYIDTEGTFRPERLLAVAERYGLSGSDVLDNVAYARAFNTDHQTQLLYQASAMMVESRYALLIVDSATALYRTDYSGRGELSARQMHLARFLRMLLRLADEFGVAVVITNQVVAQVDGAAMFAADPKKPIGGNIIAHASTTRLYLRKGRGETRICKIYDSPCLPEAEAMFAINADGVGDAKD
Method: Labeled 100-ssDNA** (1 μM) was incubated with 0.5 μM Rad51 in presence or absence of the indicated amounts of the corresponding molecule in 10 μL of standard reaction buffer containing 20 mM Tris-HCl (pH 8), 1 mM ATP, 1 mM DTT, 1 mM CaCl2) at 37° C. for 20 min. The reaction was initiated by adding supercoiled pPB4.3 DNA (200 μM in bp). After incubation of 30 min at 37° C., the reactions were stopped and deproteinized by a stop solution (10 mM Tris-HCl pH 8, 10 mM MgCl2, 1% SDS, and 1 mg/mL proteinase K. The reaction mixtures were further incubated for 15 min at 37° C. After adding 5-fold loading dye (0.05% bromophenol blue, 8% glycerol, 1 mM EDTA), the reaction products were separated by electrophoresis on 1% agarose gel. The electrophoresis was carried out in 0.5×TAE buffer (20 mM Tris, 10 mM acetic acid and 1 mM EDTA) at 100 V for 2 h. The labeled products (100-ssDNA** and D-loop) were visualized and quantified by the detection of the IRD-700 dye with the 700 nm infrared fluorescent detection channel of an Odyssey Infrared Imager (LI-COR) (Normand, A. et al., Biochemical Pharmacology, October 2014, Vol. 91, No. 3, pp. 293-300).
The “D-loop” in vitro test allows the quantification of the formation of the strand exchange structure (D-loop) and thus the determination of the inhibitory power of a molecule during the strand exchange step of the recombinase mechanism. IC50 measuring the RAD51 protein inhibition in presence of compounds A-1 to A-5, […] and DIDS are then calculated.

[2] = target: T1, Rad51; assay: RAD51 nucleofilament formation by Bio-Layer Interferometry (BLItz), binding of Rad51 to ssDNA; details: for activity on nucleofilament formation compared with reference molecule BPQ / formation of RAD51 protein nucleofilament (relative binding of RAD51 protein with single-stranded DNA): FIG. 2; for formation of RAD51 protein nucleofilament (relative binding of RAD51 protein with single-stranded DNA): increasing doses of inhibitors; for activity on nucleofilament formation compared with reference molecule DIDS: low dose (5 μM)
Method: The binding of Rad51 to ssDNA was monitored and quantified by Bio-Layer Interferometry technology using the BLItz platform (FortéBio Inc.). The procedure includes four steps: (1) the baseline in buffer A containing 1×PBS, 10 mM MgCl2 and 0.0075% Tween20 was recorded for 20 s; (2) loading and binding of Rad51 were measured for 40 s using 1.5 μM Rad51 and 1 mM ATP in buffer A; (3) the dissociation of Rad51 from ssDNA was recorded for 20 s in buffer A; (4) the ssDNA biosensor was regenerated using baths of 50 mM NaOH. Except for the step 2, which used 4 μL drop of the protein sample, the steps 1, 3 and 4 used 250 μL solutions in 0.5 mL tube. The measurement parameters were as follows: room temperature measurement and stirring speed of 2200 rpm. To investigate the effect of CSB and analogs to the ssDNA binding of Rad51, the molecule was included in the protein sample of the step 2 at the indicated concentrations and incubated for 5 min before loading on the biosensor. (Normand, A. et al., “Identification and characterization of human Rad51 inhibitors by screening of an existing drug library.”, Biochemical Pharmacology, October 2014, Vol. 91, No. 3, pp. 293-300).
A test based on interferometry (Blitz®, Fortebio) allows the measure of the association kinetics of RAD51 protein with a single-stranded DNA immobilized on a biosensor support in the presence or absence of an inhibitor. The effect of compounds B-1, B-2, B-3, BPQ and X-4 on RAD51 nucleofilament formation has been evaluated in presence of increasing doses of inhibitors. The results are presented on FIG. 2.

[3] = target: T2, HsRad51 (Homo sapiens, UniProt Q06609); assay: RAD51 oligomerization by SDS-PAGE gel after crosslink; format: biochemical; details: 2.5 μM HsRad51, disuccinimidyl suberate crosslink, SDS-PAGE/Western blot; FIG. 1
T2 sequence (Q06609 1-339): T1 sequence (Q06609 1-339)
Method: The reaction was performed at room temperature. 2.5 μm HsRad51 was incubated with the indicated concentrations of tested compounds for 10 min in a buffer containing 20 mm sodium phosphate, 50 mm NaCl, 1 mm MgCl 2, and 1 mm ATP. The cross-linking reactions were initiated by the addition of disuccinimidyl suberate (50 μm) and allowed to proceed for 30 min. Reactions were quenched by the addition of Tris-HCl (pH 7.5, final concentration: 50 mm) followed by subsequent incubations for 15 min. The products were then separated by 12% SDS polyacrylamide gel electrophoresis and detected by Western blot with mouse monoclonal anti-Rad51 antibody (NeoMarkers) and anti-mouse Alexa-Fluor 700-conjugated secondary antibody (Molecular Probes, Eugene, OR). The cross-linked dimer was quantified by an Odyssey Infrared Imaging System scanner (Li-Cor Biosciences) (Martinez, S. F. et al., “Targeting human Rad51 by specific DNA aptamers induces inhibition of homologous recombination”, Biochimie, December 2010, Vol. 92, No. 12, pp. 1832-1838).
The SDS-PAGE electrophoresis after crosslink maintains and immobilizes the RAD51 protein complexes and thus allows visualization of the degree of oligomerization (polymer formation) of the RAD51 protein. The effect of RAD51 protein inhibitors B-1, B-2, B-3, DIDS and X-4 on this key step of RAD51 protein recombinase activity has thus been evaluated. The results are presented on FIG. 1.

[4] = test system: recombinant fibroblast line RG37; assay: Intracellular homologous recombination (HR), GFP reconstitution after I-SceI cleavage, flow cytometry; format: cell-based; details: RG37 cells, 72 h after pCMV-HA-I-SceI transfection; FIG. 3
Method: After transfection with the pCMV-HA-I-SceI plasmid and incubation for 72 h, the cells were collected in PBS and 50 mM EDTA, pelleted and fixed with 2% paraformaledhyde for 20 min. The percentage of GFP-expressing cells was scored by FACS analysis using Cytoflex (Beckman Coulter). At least 3 independent experiments were performed, and HA-I-SceI expression was verified each time by Western blot with rabbit anti-HA antibody (Abcam).
The recombinant fibroblast line RG37 is used to confirm in vitro results (Examples 2-5) in the cellular context. This cellar line comprises two non-functional GFP cassettes, one of which has a unique cleavage site inducible by transfection of a restriction enzyme. After cleavage, which is equivalent to a double-strand break (DSB) of the DNA, the homologous recombination (HR) leads to the reconstitution of a complete GFP cassette thus making the cell fluorescent. The rate of intracellular HR is then determined by measurement in flow cytometry so as to measure the level of HR in cells after treatment with compounds C-3, B-2 and X-2.

[5] = test system: DU-145 cell line; assay: Clonogenicity test, sensitizing effect with an antineoplastic drug; format: cell-based; details: Homo sapiens; DU-145, camptothecin alone; read-out: IC50 (clonogenic survival, camptothecin)
Method: Clonogenicity tests are carried out against several model cell lines derived from cancer including prostate cancer (DU-145). Cells are exposed to an anti-cancer agent targeting DNA (cisplatin or camptothecin). Damaged cells are counted and seeded in the presence or in the absence of B-2 in triplicate culture plates. After about two weeks of incubation at 37° C. the number of clones formed is counted. Each cell capable of repairing its lesions will then form a clone. After counting, the percentage of survival will be calculated relative to the control condition for which it is considered that there is 100% survival.
The main interest of RAD51 protein inhibitors is the sensitization of chemo-resistant or radio-resistant cancerous cell lines. Clonogenicity evaluation was carried out on the DU-145 cell line treated with cisplatin treatment in the presence or in the absence of disulfonate stilbene B-2 (RAD51 protein inhibitor).
DU-145 cell line was treated with camptothecin in the presence or in the absence of disulfonate stilbene B-2 (RAD51 protein inhibitor) and the clonogenic cell survival was determined.

[6] = 0.5 μM Rad51, 1 μM 100-ssDNA, 37° C., read-out: IC50 (RAD51 protein inhibition, D-loop formation)

Compound | IC50 [1, 6] | formation of RAD51 protein nucleofilament (relative binding of RAD51 protein with single-stranded DNA) [2] | oligomerization state of RAD51 protein [3] | other results
O=C(Nc1ccc(/C=C/c2ccc(NC(=O)c3ccccc3)cc2S(=O)(=O)O)c(S(=O)(=O)O)c1)c1ccccc1 [A-3, Sodium (E)-6,6′-(ethene-1,2-diyl)bis(3-benzamidobenzenesulfonate)] | > 10 µM |  |  | 
COc1ccc(C(=O)Nc2ccc(/C=C/c3ccc(NC(=O)c4ccc(OC)cc4)cc3S(=O)(=O)O)c(S(=O)(=O)O)c2)cc1 [A-4, Sodium (E)-6,6′-(ethene-1,2-diyl)bis(3-(4-methoxybenzamido)benzenesulfonate)] | 6 µM |  |  | 
[N-]=[N+]=Nc1ccc(/C=C/c2ccc(N=[N+]=[N-])cc2S(=O)(=O)[O-])c(S(=O)(=O)[O-])c1.[Na+].[Na+] [B-1, Sodium (E)-6,6′-(ethene-1,2-diyl)bis(3-azidobenzenesulfonate)] | 21 µM | inhibit | significant reduction | activity on nucleofilament formation compared with reference molecule BPQ [2]: comparable to or even better; activity on nucleofilament formation compared with reference molecule DIDS [2]: comparable
O=S(=O)([O-])c1cc(I)ccc1/C=C/c1ccc(I)cc1S(=O)(=O)[O-].[K+].[K+] [B-3, Potassium (E)-6,6′-(ethene-1,2-diyl)bis(3-iodobenzenesulfonate)] | 34 µM | inhibit | significant reduction | activity on nucleofilament formation compared with reference molecule BPQ [2]: comparable to or even better; activity on nucleofilament formation compared with reference molecule DIDS [2]: comparable
O=C(Nc1ccc(/C=C/c2ccc(NC(=O)Oc3ccccc3)cc2S(=O)(=O)[O-])c(S(=O)(=O)[O-])c1)Oc1ccccc1.[Na+].[Na+] [C-3, Sodium (E)-6,6′-(ethene-1,2-diyl)bis(3-((phenoxycarbonyl)amino)benzenesulfonate)] |  |  |  | IC50 [1]: 2 µM; intracellular HR inhibition [4]: significant inhibitory effect
O=S(=O)(O)c1cc(NS(=O)(=O)c2ccccc2)ccc1/C=C/c1ccc(NS(=O)(=O)c2ccccc2)cc1S(=O)(=O)O [S-1, Sodium (E)-6,6′-(ethene-1,2-diyl)bis(3-(phenylsulfonamido)benzenesulfonate)] | 41 µM |  |  | 
Cc1ccc(S(=O)(=O)Nc2ccc(/C=C/c3ccc(NS(=O)(=O)c4ccc(C)cc4)cc3S(=O)(=O)O)c(S(=O)(=O)O)c2)cc1 [S-2, Sodium (E)-6,6′-(ethene-1,2-diyl)bis(3-((4-methylphenyl)sulfonamido)benzenesulfonate)] | 29 µM |  |  | 
O=C(Nc1ccc(/C=C/c2ccc(NC(=O)Oc3ccccc3)cc2)cc1)Oc1ccccc1 [X-2, Diphenyl (ethene-1,2-diylbis(4,1-phenylene))(E)-dicarbamate, reference compound] |  |  |  | intracellular HR inhibition [4]: does not lead to any inhibition
[N-]=[N+]=Nc1ccc(/C=C/c2ccc(N=[N+]=[N-])cc2)cc1 [X-4, (E)-1,2-bis(4-azidophenyl)ethene, reference compound] |  | no inhibitory effect whatsoever | no effect | 
CC[C@@]1(O)C(=O)OCc2c1cc1n(c2=O)Cc2cc3ccccc3nc2-1 [camptothecin, reference compound] |  |  |  | IC50 [5]: 0.098 µM
